Measured values: paper PMC5489263 (Science Advances, 2017)
Ends that are not written are not given here.

How the values were obtained:
[1] = molecular target: Le.Ste2 mating receptor (Lodderomyces elongisporus, UniProt A5E1D9); assay: cell-based
[2] = molecular target: C. glabrata mating receptor (Cg.Ste2) (Candida glabrata, UniProt Q6FLY8); assay: cell-based
Chain of C. glabrata mating receptor (Cg.Ste2) (Q6FLY8 entry or part of it): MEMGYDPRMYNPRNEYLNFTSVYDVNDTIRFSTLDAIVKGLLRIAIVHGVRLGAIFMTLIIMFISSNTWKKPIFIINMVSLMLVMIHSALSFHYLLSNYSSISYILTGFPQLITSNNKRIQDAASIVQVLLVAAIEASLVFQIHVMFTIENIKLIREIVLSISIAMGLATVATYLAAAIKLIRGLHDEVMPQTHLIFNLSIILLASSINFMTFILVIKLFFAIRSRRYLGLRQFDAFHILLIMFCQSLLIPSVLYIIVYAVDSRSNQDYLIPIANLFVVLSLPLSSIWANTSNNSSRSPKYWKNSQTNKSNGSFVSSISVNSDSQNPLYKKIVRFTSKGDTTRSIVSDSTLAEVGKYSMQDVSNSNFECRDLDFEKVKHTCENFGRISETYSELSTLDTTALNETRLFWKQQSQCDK

Chain of Le.Ste2 mating receptor (A5E1D9 entry or part of it): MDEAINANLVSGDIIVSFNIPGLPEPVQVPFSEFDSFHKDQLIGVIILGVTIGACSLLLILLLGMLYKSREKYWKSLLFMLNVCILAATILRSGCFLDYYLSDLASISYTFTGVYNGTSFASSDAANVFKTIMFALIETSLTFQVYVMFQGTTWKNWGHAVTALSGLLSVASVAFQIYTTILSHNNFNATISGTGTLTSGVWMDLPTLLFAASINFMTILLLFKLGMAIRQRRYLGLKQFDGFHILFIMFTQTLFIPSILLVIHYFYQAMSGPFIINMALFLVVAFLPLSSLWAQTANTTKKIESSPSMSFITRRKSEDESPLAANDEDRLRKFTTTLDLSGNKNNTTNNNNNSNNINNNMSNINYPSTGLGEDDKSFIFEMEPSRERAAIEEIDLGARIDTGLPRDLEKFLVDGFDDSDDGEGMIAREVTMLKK

WMWTRYGRFSPV [Le – Lodderomyces elongisporus]
EC50 [1]: 0.054 µM

WHWVRLRKGQGLF [Cg – Candida glabrata]
EC50 [2]: 14 µM
